Experimental data from patent US12492232B2, “Methods for producing proteins” (South Australian Health and Medical Research Institute …, priority 2018, dated 2025).
“Also recorded” adds a separate entry of the source.

Key:
[1] = system: CHO cells stably expressing Gaussia luciferase (GLuc); test: Secreted Gaussia luciferase assay in CHO cells stably expressing GLuc transfected with Rheb vectors; assay type: cell-based; conditions: for increase in secreted Gaussia luciferase: day 7, normalised to cell number
Procedure: CHO cells stably expressing Firefly luciferase (FLuc) or Gaussia luciferase (GLuc) as indicated were transfected using Lipofectamine3000 with an empty vector (EV) or vectors for Rheb WT, S21L, T23M, G29S, Y35N or E40K and also treated with the mTOR inhibitor AZD8055 at 100 nM for the total duration where indicated. Fluc and GLuc assays were performed 24 h after transfection and then every 48 h for 7 days. Assay results are normalised to cell number. GLuc-CHO cells were harvested for SDS-PAGE and Western Blot analysis at the 168 h (7-day) time-point to probe for intracellular GLuc, FLAG (Rheb) and actin, as ‘loading control’. […] However, Rheb-T23M and —Y35N caused a significant 3-fold increase in secreted Gaussia luciferase that was also seen with E40K and was prevented by treatment with AZD8055 (C/D [histogram of day 7]). In (E), secreted GLuc was monitored every 4 h from 24 h to 60 h showing the rate of secretion of GLuc was higher when Rheb-T23M is expressed as compared to Rheb-Y35N. The pattern for intracellular levels of Gaussia luciferase (assessed by immunoblot of cell lysates harvested at 7 days post transfection) more closely resemble those intracellular firefly luciferase (F) with little change compared to either the empty vector or WT while still retaining heightened mTORC1 signalling as indicated by the elevated levels of P-S6K1 Thr389 compared to cells transfected with the empty vector. CHO cells expressing Rheb-T23M, Y35N and E40K show a small increases in general protein synthesis but a marked increase in secreted Gaussia protein that is blocked by mTOR inhibition. Thus, Rheb[T23M] selectively promotes production of the secreted protein GLuc in a process that requires mTOR signalling.
Constructs were introduced into CHO cells using Lipofectamine3000 (Life Technologies) according to the manufacturer's protocol. Cell lines stably expressing secreted luciferase were generated by cloning the GLuc gene with a signal sequence from Nanolight Technology (see paper sent with this version) and cloning this into the pcDNA4 commercially available vector where gene expression was driven by a CMV promoter. The subsequent vectors were transfected, using lipofectamine, into CHO-S freestyle suspension cells and grown in CD-CHO media and then stable transfectant pools selected by addition of zeocin antibiotic. Once stable pools had emerged these were subjected to limited dilution cloning to obtain a range of pools with different secreted GLuc expression levels. Methods as are described, for example, in Josse et al. (2009) Biotechnology and Bioengineering 105: 556-566.
For Gaussia luciferase, we employed the BioLux® Gaussia Luciferase Assay Kit (New England Biolabs (NEB), Cat. No. E3300S) and for firefly luciferase the Luciferase Assay System from Promega (Cat. No. E1500). Cells were grown in Ham's F12 medium F12 nutrient mix, Ham's (Life Technologies, Cat. No. 11765054).
CHO cells stably expressing Firefly luciferase (FLuc; which is cytoplasmic) or Gaussia luciferase (GLuc; which is secreted) as indicated were transfected using Lipofectamine3000 with an empty vector (EV) or vectors for Rheb WT, S21L, T23M, G29S, Y35N or E40K and treated with the mTOR inhibitor AZD8055 at 100 nM for the total duration where appropriate. Fluc and GLuc assays were performed at 24 h after transfection and then every 48 h for 7 days. Assay results were normalised to cell number. […]

[2] = system: TSC1/TSC2; test: GAP assay: TSC1/TSC2-promoted hydrolysis of GTP bound to recombinant GST-Rheb; assay type: biochemical; conditions: FLAG-TSC1, FLAG-TSC2, [α-32P]GTP, n=3
From the text: FIGS. 1A-1B: Recombinant GST-Rheb proteins were subjected to GAP assay in the presence of FLAG-TSC1, FLAG-TSC2 and [α-^32P] GTP. GST-Rheb bound to GDP or GTP was pulled down using glutathione beads and the nucleotides were then separated by thin-layer chromatography and visualized by phosphorimager. The positions of GDP and GTP are shown (FIG. 1A). […] FIGS. 1C-1D: CHO cells were co-transfected using Lipofectamine 3000 with vectors encoding wildtype (WT) Rheb or the indicated mutants and TSC1/2 as indicated. 36 h after transfection, cells were transferred to Ham's F12 media lacking FBS for 16 h. Cells were the transferred to Dulbecco's phosphate-buffered saline (D-PBS, which lacks amino acids) for 1 h before cell lysates were harvested for SDS-PAGE and Western Blotting analysis using the indicated antibodies. […] This effect is consistent with lack of sensitivity of the mutant Rhebs to TSC1/TSC2. Thus the Rheb mutants S21L, T23M, G29S, Y35N and E40K promote mTORC1 signalling in the absence of upstream activation due to insensitivity to the GAP activity of the TSC complex.
A) Recombinant GST-Rheb proteins were subjected to GTPase assays in the presence of FLAG-TSC1, FLAG-TSC2 and [α-^32P]GTP. Nucleotide-bound GST-Rheb was purified from the reaction mixture using 20 μl glutathione bead slurry. Radioactive GDP and GTP were separated by thin-layer chromatography and visualized by phosphorimager.

[3] = system: mTORC1 signalling; test: mTORC1 signalling (Western blot, S6K1 and rpS6) in transfected CHO cells starved of serum and amino acids, with or without TSC1/2 co-transfection; assay type: cell-based; conditions: for mTORC1 signalling in the absence of upstream activation: no serum 16 h, D-PBS 1 h, compared to empty vector and Rheb-WT; for mTORC1 signalling when co-transfected with TSC1/TSC2: no serum and amino acids
Procedure: GTP. GST-Rheb bound to GDP or GTP was pulled down using glutathione beads and the nucleotides were then separated by thin-layer chromatography and visualized by phosphorimager. The positions of GDP and GTP are shown (FIG. 1A). […] FIGS. 1C-1D: CHO cells were co-transfected using Lipofectamine 3000 with vectors encoding wildtype (WT) Rheb or the indicated mutants and TSC1/2 as indicated. 36 h after transfection, cells were transferred to Ham's F12 media lacking FBS for 16 h. Cells were the transferred to Dulbecco's phosphate-buffered saline (D-PBS, which lacks amino acids) for 1 h before cell lysates were harvested for SDS-PAGE and Western Blotting analysis using the indicated antibodies.

[4] = system: ExpiCHO-S™ cells; test: Rabbit IgG secretion by ExpiCHO-S cells stably expressing Rheb variants (Easy-Titer Rabbit IgG Assay); assay type: cell-based; conditions: single replicate; compared to Rheb-WT or Rheb-Y35N
Procedure: Materials and Methods: ExpiCHO-S™ cells were purchased from ThermoFischer Scientific and cultured in ExpiCHO™ Expression Medium at 37° C. at 8% CO2. […] Transfected cells were grown in 600 μg/mL […] for 6 weeks. Surviving cells were plated as single cells in a 96-well plate and monoclonal colonies selected for FLAG-Rheb expression.
Rabbit IgG secretion was determined using the ExpiCHO™ Expression system according to the manufacturer's instructions. Briefly, ExpiCHO™ cells expressing either endogenous Rheb or stably expressing exogenous Rheb were seeded at 6×10^6 cells/mL in 25 mL of ExpiCHO™ Expression Medium and transfected with 20 μg of a pcDNA3.1 vector encoding heavy and light chains of Rabbit IgG at a 1:2 ratio of heavy chain:light chain using ExpiFectamine™ CHO Reagent. 24 hours after transfection, cells were feed with ExpiCHO™ Feed and ExpiFectamine™ CHO Enhancer and transferred to 32° C., 5% CO2. Cells were allowed to grow for 10 days with 100 μL samples taken every day. After 10 days, Cells were pelleted by centrifugation at 4000×g for 30 minutes at 4° C. and the supernatant filtered through a […] PVFD filter and collected. IgG yield was determined using Easy-Titer™ Rabbit IgG Assay kit and calculated from a standard curve.

[5] = system: mTORC1 localisation at the lysosome; test: Immunofluorescence of mTOR and LAMP1 colocalisation in serum-starved transfected CHO cells; assay type: cell-based; conditions: medium lacking FBS for 16 h
Procedure: (§1) 24 h after transfection cells were transferred to medium lacking FBS for 16 hours. Cells were fixed with 4% paraformaldehyde, permeabilized with 0.05% Triton X-100, blocked with 10% normal donkey serum before LAMP1 and then anti-mTOR antibodies were applied overnight. Alexa Fluor™ 488 and 594-labelled secondary antibodies were applied before cells were mounted and stained with DAPI.
as §1, with “h.” for “hours.”, “mTOR” for “then anti-mTOR”, “594” for “594-labelled”

[6] = system: mTORC1 and ER Stress activation markers; test: Western blot for mTORC1 and ER stress activation markers in ExpiCHO cells stably expressing Rheb variants; assay type: cell-based
[7] = system: CHO cells stably expressing Firefly luciferase (FLuc); test: Firefly luciferase assay in CHO cells stably expressing FLuc transfected with Rheb vectors; assay type: cell-based; conditions: day 7, normalised to cell number
Procedure: CHO cells stably expressing Firefly luciferase (FLuc) or Gaussia luciferase (GLuc) as indicated were transfected using Lipofectamine3000 with an empty vector (EV) or vectors for Rheb WT, S21L, T23M, G29S, Y35N or E40K and also treated with the mTOR inhibitor AZD8055 at 100 nM for the total duration where indicated. Fluc and GLuc assays were performed 24 h after transfection and then every 48 h for 7 days. Assay results are normalised to cell number. GLuc-CHO cells were harvested for SDS-PAGE and Western Blot analysis at the 168 h (7-day) time-point to probe for intracellular GLuc, FLAG (Rheb) and actin, as ‘loading control’. […] In (E), secreted GLuc was monitored every 4 h from 24 h to 60 h showing the rate of secretion of GLuc was higher when Rheb-T23M is expressed as compared to Rheb-Y35N. The pattern for intracellular levels of Gaussia luciferase (assessed by immunoblot of cell lysates harvested at 7 days post transfection) more closely resemble those intracellular firefly luciferase (F) with little change compared to either the empty vector or WT while still retaining heightened mTORC1 signalling as indicated by the elevated levels of P-S6K1 Thr389 compared to cells transfected with the empty vector. […]

Molecule	hydrolysis of GTP bound to Rheb promoted by TSC1/TSC2 [2]	mTORC1 signalling in the absence of upstream activation [3]	mTORC1 signalling when co-transfected with TSC1/TSC2 [3]	other results
COc1ccc(-c2ccc3c(N4CCOC[C@@H]4C)nc(N4CCOC[C@@H]4C)nc3n2)cc1CO [AZD8055, reference compound]	–	–	–	effect on the Rheb mutant-induced increase in secreted Gaussia luciferase ([1]; AZD8055 at 100 nM for the total duration): prevented
G29S: Rheb mutant G29S created by site-directed mutagenesis of human Rheb [Rheb G29S]	partial resistance; also recorded: a small degree of hydrolysis	increased mTORC1 signalling over both the empty vector and Rheb-WT	no reduction	–
G63A: Rheb mutant G63A tested in the GAP assay [Rheb G63A]	completely unable to promote hydrolysis of GTP; also recorded: did not promote hydrolysis of GTP	–	–	–
Q64L: Rheb mutant Q64L tested in the GAP assay [Rheb Q64L]	partial resistance; also recorded: a small degree of hydrolysis	–	–	–
Rheb-E40K: human Rheb protein with a lysine variant at residue 40 (E40K), SEQ ID NO. 5	completely unable to promote hydrolysis of GTP; also recorded: did not promote hydrolysis of GTP	increased mTORC1 signalling over both the empty vector and Rheb-WT	no reduction	rate of IgG secretion determined daily over 10 days [4]: maintain a constant rate of IgG secretion over a longer period; increase in secreted Gaussia luciferase [1]: 3 fold; mTOR localisation to the lysosome (overlap with LAMP1) [5]: promote localisation; also recorded: mTORC1 localisation at the lysosome is maintained; ER stress response (Western blot markers) [6]: mild ER stress response; mTORC1 signalling (Western blot markers) [6]: increased mTORC1 signalling
Rheb-S21L: Rheb mutant S21L created by site-directed mutagenesis of human Rheb	completely unable to promote hydrolysis of GTP; also recorded: did not promote hydrolysis of GTP	increased mTORC1 signalling over both the empty vector and Rheb-WT	no reduction	–
Rheb-Y35N: human Rheb protein with an asparagine variant at residue 35 (Y35N), SEQ ID NO. 4	completely unable to promote hydrolysis of GTP; also recorded: did not promote hydrolysis of GTP	increased mTORC1 signalling over both the empty vector and Rheb-WT	no reduction	increase in secreted Gaussia luciferase [1]: 3 fold; increase in synthesis of intracellular Firefly luciferase compared to the empty vector [7]: ca. 1.2 fold; mTOR localisation to the lysosome (overlap with LAMP1) [5]: promote localisation; also recorded: strong mTOR localisation on lysosomes
